In article PMC4832822, “Investigating the Influence of (Deoxy)fluorination on the Lipophilicity of Non‐UV‐Active Fluorinated Alkanols and Carbohydrates by a New log P Determination Method” (Angewandte Chemie (International Ed. in English), 2015):
Values joined by “and” are separate entries in the source; they are usually repeats but may differ in a detail not shown here. Equal entries are not always repeated. Where two headings read alike, the source gives them in different places.

Key:
[1] = milogP calculated using Molinspiration Cheminformatics; details: Table SI14
[2] = cited from earlier work
[3] = log P determination by 19F NMR shake-flask method with internal fluorinated reference (octanol/water); details: for ΔlogP (exp. logP vs logP lit): Table SI12
[4] = octanol/water, Average logP, 25 °C, reference TFE (+0.36)
[5] = octanol/water, error (mean logP to three decimals), reference TFE (+0.36)
[6] = octanol/water, logP, 19F NMR, 25 °C, average value
[7] = octanol/water, logP, single experiment, reference TFE (+0.36)

ΔlogP (milogP vs logP exp) [1]	Average logP ([3]; 25 °C, reference TFE (+0.36))	ΔlogP (exp. logP vs logP lit) [3]	logP [3, 4]	logP [3, 5]	logP [3, 6]	logP [3, 7]	Compound	also measured
+0.05	+1.20	-0.03	1.2	1.2	1.2	1.2	OCC(F)(F)C(F)(F)F [compound 13, CF3CF2CH2OH]	logP (lit) ([2]; ref chemidplus database, Hansch, Leo 1979 and Leo, Elkins, Chem. Rev. 1971): 1.23; logP ([3]; octanol/water, average logP, mA 2.0 mg, mREF 0.8 mg, reference CF3CH2OH): 1.2; logP ([3]; octanol/water, average logP, mA 10.0 mg, mREF 4.0 mg): 1.2; logP ([3]; octanol/water, average logP, mA 70.0 mg, mREF 30.0/70.0 mg): 1.18; logP ([3]; octanol/water, average logP, mA 120.0 mg, mREF 60.0 mg): 1.18; logP ([3]; octanol/water, logP, single experiment, mA 2.0 mg, mREF 0.8 mg, reference CF3CH2OH): 1.2; logP ([3]; octanol/water, logP, single experiment, mA 10.0 mg, mREF 4.0 mg): 1.2; logP ([3]; octanol/water, logP, single experiment, mA 70.0 mg, mREF 30.0/70.0 mg): 1.18; logP ([3]; octanol/water, logP, single experiment, mA 120.0 mg, mREF 60.0 mg): 1.17; mean logP ([3]; reference TFE (+0.36)): 1.200; logP ([3]; single experiment, mA 2.0 mg, mREF 0.8 mg, reference CF3CH2OH): 1.200; logP ([3]; single experiment, mA 10.0 mg, mREF 4.0 mg): 1.200 and 1.195; logP ([3]; single experiment, mA 70.0 mg, mREF 30.0/70.0 mg): 1.179; logP ([3]; single experiment, mA 120.0 mg, mREF 60.0 mg): 1.178 and 1.174; logP ([3]; single experiment, reference TFE (+0.36)): +1.200 and +1.199
+0.24	+0.91	+0.01	0.91	0.91	0.91	0.918	OCCCC(F)(F)F [compound 23, 4,4,4-trifluoro-1-butanol]	logP (lit) ([2]; ref chemidplus database and N. Muller 1986): +0.90; logP ([3]; octanol/water, 19F NMR, 25 °C, average value): +0.91
+0.43	+1.22	+0.07	1.22	1.22	1.22	1.22	OCCCCC(F)(F)F [compound 35]	logP (lit) ([2]; shake-flask, 1H or 19F NMR, temperature not reported, ref N. Muller, J. Pharm. Sci. 1986): +1.15
